Source: PubChem BioAssay AID2305 (GlaxoSmithKline (GSK), 2010)

Each compound was assayed on P. falciparum 3D7 growth, pLDH absorbance (assay: blood-stage malaria parasite growth potency – strain 3D7, dose response (AID 2305)).
In the case of `CNC(=O)c1cc(F)c(F)cc1Nc1nc(Nc2cccc(CS(C)(=O)=O)c2)ncc1Cl`, the IC50 is reported as 1020 nM. In the case of `COc1ccc(-c2nc(NC(=O)Cc3cccc(OC)c3)sc2C)cc1`, the IC50 is reported as 240 nM. Compound `Cc1cnc(-c2cccc(C(=O)NC3CCC(CCN4CCc5ccc(C#N)cc5CC4)CC3)c2)[nH]1` (stereo not drawn) has an IC50 of 300 nM. In the case of `CC(C)(C)c1ccc(C(=O)N2CCC3(CC2)C(=O)N(CC(=O)NCC2CCCO2)CN3c2ccccc2)cc1` (stereo not drawn), the IC50 is reported as 230 nM. For `CN1CCC(NCc2ccc(-c3cccc(S(=O)(=O)NCC4CCCO4)c3)cc2)CC1` (stereo not drawn), the IC50 was 940 nM. `Cc1ccc(Cc2cnc(NCCSCc3ccc(CN4CCOCC4)o3)[nH]c2=O)cn1` gave an IC50 of 1070 nM. With `CCOc1cc2ncnc(Nc3ccc(OCc4c(F)cccc4F)c(OC)c3)c2cc1OCC` the IC50 was 820 nM. With `C[C@H](Cc1ccc(Oc2ccc(C[C@@H](C)NC[C@H](O)c3cccc(Cl)c3)cc2)cc1)NC[C@H](O)c1cccc(Cl)c1` the IC50 was 560 nM. For `CS(=O)(=O)c1ccc(CCNCc2ccc(-c3ccc(CN(C(=O)C4CCCC4)C4CCN(Cc5ccccc5)CC4)cc3)nc2)cc1`, the IC50 was 830 nM. Compound `O=C(Nc1ccc(Cl)cc1)c1ccc(CN2CCCN(Cc3cccc(F)c3)CC2)cc1` has an IC50 of 1030 nM. In the case of `CCC[C@@H](/C=N/N(C)C(=O)OC(C)(C)C)NC(=O)[C@H](CC(C)C)NC(=O)c1cc2cccc(OC)c2o1`, the IC50 is reported as 1080 nM. Work on `COC(=O)c1cc(NC(=O)Nc2ccc(Cn3ncc(N4CCCNCC4)c(Cl)c3=O)cc2)cc(C(=O)OC)c1` yielded an IC50 of 710 nM. With `CC(C)(C)c1ccc(N2C(N)=NC(N)=NC2(C)C)cc1Cl` the IC50 was 10 nM. With `CC(C)NCc1cccc(-c2ccc(NS(=O)(=O)c3cccc4cccnc34)cc2)c1` the IC50 was 1080 nM. For `CC12CCC(=O)N1C(C(=O)Nc1cccc(C(=O)Nc3cccc(C(F)(F)F)c3)c1)CS2` (stereo not drawn), the IC50 was 360 nM. Compound `CC[C@H]1CN(CCCn2c3ccccc3c3ccccc32)[C@@H](CC)CN1` has an IC50 of 1080 nM. With `COc1ccc(C(C(=O)NC2CCN(C[C@H](O)c3ccnc4ccc(OC)cc34)CC2)N2CCN(c3ccc([N+](=O)[O-])cc3)CC2)cc1` (stereo partly drawn) the IC50 was 230 nM. In the case of `C[C@H](NC(=O)c1c(CN2CCC(NC(=O)CC(C)(C)C)CC2)c(-c2cccs2)nc2ccccc12)C1CCCCC1`, the IC50 is reported as 950 nM. Work on `COc1ccc(-c2cccc(NC(=O)c3ccc(Cl)cc3)c2)cc1CN1CCNCC1` yielded an IC50 of 840 nM. `O=C(Nc1nc(-c2ccccn2)cs1)c1ccc(S(=O)(=O)N2CCc3ccccc32)cc1` showed an IC50 of 830 nM. Work on `CCn1ccc2c(N3CCCCS3(=O)=O)cc(C(=O)N[C@@H](Cc3ccccc3)[C@H](O)CNC3CCCCC3)cc21` yielded an IC50 of 120 nM. With `COc1cc2c(cc1COc1ccccc1)CCN1Cc3cc(OC)c(OC)cc3CC21` (stereo not drawn) the IC50 was 150 nM. `CC(C)CCCC(C)(C)NC[C@@H](O)[C@H](Cc1ccccc1)NC(=O)c1cccc(OCC2CC2)c1` showed an IC50 of 840 nM. `O=C(Nc1cccc(-c2nn3ccccc3c2-c2ccnc(Nc3cccc(F)c3)n2)c1)c1c(F)ccc(F)c1Cl` gave an IC50 of 1140 nM. For `COc1cccc(Nc2nccc(NCC(O)c3cccc(C(F)(F)F)c3)n2)c1` (stereo not drawn), the IC50 was 700 nM. `CN(C)CCN1CCN(Cc2ccc(-c3cccc(-c4nc5ccccc5[nH]4)c3)cc2)CC1` was tested, and the IC50 was 200 nM. Compound `Clc1cc(Cl)c2c(c1)C(NCCCNc1nc3ccccc3[nH]1)CCO2` (stereo not drawn) has an IC50 of 330 nM. `CCCOc1cc2c(cc1OCCC)C(C=Cc1ccc(Cl)cc1Cl)=NC(C)C2` (stereo not drawn) showed an IC50 of 370 nM. Work on `Cc1cc(C2CCN(CCCCNC(=O)c3ccc(NC(=O)c4ccc(Cl)cc4)cc3)CC2)c(C)cc1OCc1nccn1C` yielded an IC50 of 830 nM. In the case of `CCOC(=O)c1ccc(OCCOc2ccccc2)cc1`, the IC50 is reported as 370 nM. `CC[C@H]1CN(Cc2ccco2)CC[C@H]1CCCc1ccnc2ccc(O)cc12` showed an IC50 of 1270 nM. Compound `OC(CNc1ccnc(Nc2cccc(Cl)c2)n1)c1ccc(C(F)(F)F)cc1` (stereo not drawn) has an IC50 of 770 nM. `NC(N)=NC(=O)Nc1cc(F)c(Cl)c(Br)c1` was tested, and the IC50 was 990 nM. `Cc1cccc2[nH]c(-c3ccc(-c4ccc(CNCC5CCCO5)cc4)s3)nc12` (stereo not drawn) gave an IC50 of 740 nM. `O=C(Nc1ccc(-c2nc3ccccc3[nH]2)cc1)c1ccc(S(=O)(=O)N2CCCCC2)cc1` showed an IC50 of 750 nM. With `CN(C)CCN(C)Cc1ccc(-c2cccc(NC(=O)c3ccc(Cl)cc3)c2)cc1` the IC50 was 560 nM. `CCN(CCCN1CCCCC1)c1cc(C)nc(Nc2ccc(C)cc2C)n1` was tested, and the IC50 was 350 nM. Compound `CCC(=O)Nc1cc(=O)[nH]c2nc(-c3ccc(Cl)cc3)nn12` has an IC50 of 570 nM. Work on `CS(=O)(=O)Nc1ccc2[nH]cc(C3CCN(CC(O)C4CCN(C(=O)/C=C/c5ccc(Cl)c(Cl)c5)CC4)CC3)c2c1` (stereo not drawn) yielded an IC50 of 1760 nM. `COc1ccccc1N(C)CCNc1cc(C)nc(Nc2ccc(C)cc2)n1` showed an IC50 of 1570 nM. In the case of `COc1ccc2nccc([C@@H](O)CN3CCC(NC(=O)/C=C/c4cc(F)cc(Br)c4)CC3)c2c1`, the IC50 is reported as 170 nM. `COC(=O)c1ccc2[nH]cc(C3CCN(CCC4CCN(C(=O)/C=C/c5ccc(Cl)c(Cl)c5)CC4)CC3)c2c1` showed an IC50 of 510 nM. `COC(=O)c1ccccc1COc1ccc(CC2(NC(=O)[C@H](Nc3ccc(C#N)c4ccccc34)C(C)(C)C)CCCC2)cc1` was tested, and the IC50 was 860 nM. `OC(CNCc1ccccc1OCc1ccccc1)c1cccc(C(F)(F)F)c1` (stereo not drawn) showed an IC50 of 360 nM. `Cc1ccc(Nc2nc(C)cc(Nc3cccc(NS(C)(=O)=O)c3)n2)cc1` gave an IC50 of 920 nM. With `COc1ccc(C=NNc2nc(-c3ccccc3)cc(=O)[nH]2)cc1OC` the IC50 was 590 nM. `Nn1c(=O)oc2ccc(Cl)cc2c1=O` was tested, and the IC50 was 190 nM. Compound `Cc1cccc2[nH]c(-c3ccc(-c4cccc(CN5CCN(c6ccncc6)CC5)c4)s3)nc12` has an IC50 of 130 nM. `CCCN1CCN(CCCNc2c3ccccc3nc3ccccc23)CC1` showed an IC50 of 550 nM. `CC(Cc1ccc(OCc2ccccc2)cc1)Nc1nc2ccccc2c(=O)[nH]1` (stereo not drawn) gave an IC50 of 570 nM. With `Oc1ccc(CCNCCCCNCCc2ccc(Cl)cc2)cc1O` the IC50 was 840 nM. `O=C(Nc1ccc(Cl)c(Cl)c1)Nc1ccc2c(c1)CCNCC2` gave an IC50 of 530 nM. `Cc1noc(C)c1-c1ccc2c(Nc3ccc(C(F)(F)F)cc3)c(C(N)=O)cnc2c1` showed an IC50 of 320 nM. Work on `CC(=O)Nc1ccc(C(=O)N2CCN(c3ccnc4cc(Cl)ccc34)CC2)cc1` yielded an IC50 of 910 nM. Work on `C=CCn1c(=N)c(C(=O)NCc2ccc(F)cc2)cc2c(=O)n3cccc(C)c3nc21` yielded an IC50 of 1170 nM. `CCCCCNc1nc2nc(N)nc(N)c2nc1-c1ccccc1` showed an IC50 of 950 nM. `COc1ccc2c(NN=Cc3cccc(Cl)c3)ccnc2c1` gave an IC50 of 720 nM. Compound `O=S(=O)(NCCN1CCCC1)c1cccc(-c2cccc(CNCCc3cccs3)c2)c1` has an IC50 of 750 nM. Compound `NC1=NC(c2ccccc2)(c2ccccc2)C(=O)N1Cc1ccc(-c2cccnc2)cc1` has an IC50 of 700 nM. `Cc1cccc2[nH]c(-c3cccc(-c4ccc(NC(=O)C(C)CN5CCOCC5)cc4)c3)nc12` (stereo not drawn) gave an IC50 of 690 nM. Compound `S=C(Nc1cccc(Cl)c1)NC1CCN(c2ccnc3cc(Cl)ccc23)C1` (stereo not drawn) has an IC50 of 150 nM. `Nc1ncc(-c2ccc3ncccc3c2)c(N)n1` gave an IC50 of 920 nM. `CCCCC(=O)NC(c1cccs1)c1cc(Cl)c2cccnc2c1O` (stereo not drawn) was tested, and the IC50 was 380 nM. With `O=C(CCc1ccccc1)N[C@H](Cc1c[nH]c2ccccc12)C(=O)N1CCC(NCc2ccc3c(c2)Cc2ccccc2-3)CC1` the IC50 was 910 nM. In the case of `CC(C)NCc1cccc(-c2ccc(-c3nc4ccccc4[nH]3)cc2)c1`, the IC50 is reported as 760 nM. Work on `O=C(NCCc1ccccc1)N(Cc1ccc(-c2cccc(CN3CCNCC3)c2)cc1)C1CCN(Cc2ccccc2)CC1` yielded an IC50 of 1360 nM. For `COc1ccc(CNC(=O)NC2CCN(c3ccnc(Nc4ccc(F)cc4)n3)C2)cc1` (stereo not drawn), the IC50 was 840 nM. For `CCCCCCN1CCC(NCc2ccc(OCCN3CCCC3)cc2)CC1`, the IC50 was 720 nM. For `Nc1nc(N)c2c(ccc3nn(C4CCCC4)cc32)n1`, the IC50 was 290 nM. Compound `Cc1nn(C)c(C)c1CN(Cc1nc(-c2cccc(Oc3ccccc3)c2)oc1C)C1CC1` has an IC50 of 390 nM. `O=C(OCc1ccccc1)N1CCc2c([nH]c3ccccc23)C1CCC(F)(F)F` (stereo not drawn) showed an IC50 of 420 nM. Work on `O=C(/C=C/c1ccc(Cl)c(Cl)c1)NC1CCC(CN2CCC(c3c[nH]c4ccccc34)CC2)CC1` (stereo not drawn) yielded an IC50 of 230 nM. With `CC(=O)Nc1ccc(C(=O)Nc2ccc(-c3cccc(-c4nc5ccccc5[nH]4)c3)cc2)cn1` the IC50 was 240 nM. Compound `CN(c1ccc(NC(=O)CCOc2ccccc2)cc1)C1CCN(Cc2cccc(O)c2)CC1` has an IC50 of 1320 nM. Work on `O=C(Nc1cccc([N+](=O)[O-])c1)N(Cc1ccc(Cl)c(Cl)c1)C1CCNCC1` yielded an IC50 of 720 nM. `O=C(NCCc1cccc(Cl)c1Cl)c1ccc(N2CCN(c3ccncc3)CC2)nc1` gave an IC50 of 1060 nM. `COCn1ccc2c3c(N)nc(N)nc3ccc21` was tested, and the IC50 was 990 nM. For `CC(C)Oc1cc(-c2ccc(S(C)(=O)=O)cc2)nc(N(Cc2cccc(F)c2F)Cc2cccc(F)c2F)n1`, the IC50 was 120 nM. `COc1ccc(NC(=O)NC2CCN(CCCOc3cc(C)nc4ccccc34)CC2)cc1OC` gave an IC50 of 1280 nM. `NC(N)=Nc1ccc(C(=O)O)c(O)c1` was tested, and the IC50 was 1030 nM. For `O=C(/C=C/c1ccc(Cl)c(Cl)c1)N1CCC(CN2[C@@H]3CC[C@H]2CC(c2c[nH]c4ccccc24)C3)CC1` (stereo partly drawn), the IC50 was 740 nM. Compound `CCCN(CCC)C(=O)c1cc(C(=O)N[C@@H](Cc2ccccc2)[C@H](O)CNC(C)(C)c2cccc(OC)c2)cc(N2CCCCS2(=O)=O)c1` has an IC50 of 30 nM. In the case of `CC(C)Cc1cnc2nc(N)nc(N)c2c1`, the IC50 is reported as 490 nM. With `CCC[C@@H]([C@@H](CC1CCC(C)CC1)C(=O)N[C@@H](CCCNc1ncccn1)C(=O)Nc1nccs1)N(O)C=O` (stereo partly drawn) the IC50 was 190 nM. `O=C(/C=C/c1ccc(Cl)c(Cl)c1)NCCCCCN1CCCN(C(=S)Nc2ccc(Cl)cc2)CC1` gave an IC50 of 1130 nM. With `COc1ccc(CN2CCN(C(=O)c3cccs3)CC2)c(O)c1` the IC50 was 840 nM. With `COc1ccc2nc(C)cc(NN=Cc3cccc([N+](=O)[O-])c3)c2c1` the IC50 was 730 nM. Work on `Cc1ccc(-n2[nH]c(C)c(N=Nc3cccc(-c4cccc(NC(=O)OC(C)(C)C)c4)c3O)c2=O)cc1C` yielded an IC50 of 700 nM. For `CN(c1ccc2c(c1)nc(NCc1ccccc1)n2C)c1ccnc(Nc2ccc(CS(C)(=O)=O)cc2)n1`, the IC50 was 840 nM. Work on `CCN(CC)CCCC(C)Nc1cc(C=Cc2ccc([N+](=O)[O-])cc2)nc2ccc(OC)cc12` (stereo not drawn) yielded an IC50 of 570 nM. In the case of `Cc1cc(NC(=O)CCCN2CCN(c3cccc(Cl)c3Cl)CC2)ccc1N1CCN(C(C)C)CC1`, the IC50 is reported as 760 nM. For `CCN(CC)C(=O)C1CCCN(C(=O)Nc2cc(C(F)(F)F)cc(C(F)(F)F)c2)C1` (stereo not drawn), the IC50 was 1000 nM. `Cc1[nH]c(C)c(-c2ccc(Nc3ccc(C(F)(F)F)cn3)cc2)c(=O)c1Br` gave an IC50 of 30 nM. Compound `COc1ccc(CNc2nc(Nc3cccc(C#N)c3)nc(Nc3cccc(C#N)c3)n2)cc1Cl` has an IC50 of 180 nM. `COc1cccc(-c2cnc(N)c(-c3nc4cc(Cl)c(F)cc4[nH]3)c2)c1` gave an IC50 of 540 nM. In the case of `O=C(N[C@H]1CCN(Cc2ccc(OCCCN3CCCCC3)cc2)C1)c1ccc(Oc2ccccc2)cc1`, the IC50 is reported as 780 nM. With `CC(C)Oc1ccc(C=CC(=O)Nc2noc3ccccc23)cc1` the IC50 was 290 nM. With `O=C(O)CCSc1ncnc2nc[nH]c12` the IC50 was 130 nM.
